Assay results reported in PubChem BioAssay AID248 (DTP/NCI, 2004).
Several values for one entry are separate records, joined by “and”; a condition that tells them apart may be missing. Equal values may be shown once. Toxic doses and inconclusive results are not listed. Rule as the data show it: active = T/C of 150% or more; inactive = T/C below 125%. Peptide text beside a SMILES is read from it. * marks the point of attachment. Cbz = O=C(OCc1ccccc1)*; CH2Cl = ClC*

Tested on: L1210 leukemia ip in BDF1 mice, survival T/C
Assay: NCI In Vivo Anticancer Drug Screen. Data for tumor model L1210 Leukemia (intraperitoneal) in B6D2F1 (BDF1) mice
Details: endpoint: mean survival time, higher = longer survival
Procedure, shortened: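 Value reflects the ratio of survival in compound-treated mice to survival in vehicle-treated controls, with both groups carrying the same transplanted tumor.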

[1] = dose: 50.0 mg/kg/injection, schedule: Q01DX009 (ip), vehicle: saline
[2] = dose: 100.0 mg/kg/injection, schedule: Q01DX009 (ip), vehicle: saline
[3] = dose: 200.0 mg/kg/injection, schedule: Q01DX009 (ip), vehicle: saline
[4] = dose: 100.0 mg/kg/injection, schedule: Q01DX009 (ip), vehicle: Klucel (hydroxypropylcellulose) (HPC)
[5] = dose: 200.0 mg/kg/injection, schedule: Q01DX009 (ip), vehicle: Klucel (hydroxypropylcellulose) (HPC)
[6] = dose: 400.0 mg/kg/injection, schedule: Q01DX009 (ip), vehicle: Klucel (hydroxypropylcellulose) (HPC)
[7] = dose: 100.0 mg/kg/injection, schedule: Q04DX003 (ip), vehicle: Klucel (hydroxypropylcellulose) (HPC)
[8] = dose: 200.0 mg/kg/injection, schedule: Q04DX003 (ip), vehicle: Klucel (hydroxypropylcellulose) (HPC)
[9] = dose: 400.0 mg/kg/injection, schedule: Q04DX003 (ip), vehicle: Klucel (hydroxypropylcellulose) (HPC)
[10] = dose: 100.0 mg/kg/injection, schedule: Q04DX002 (ip), vehicle: Klucel (hydroxypropylcellulose) (HPC)
[11] = dose: 200.0 mg/kg/injection, schedule: Q04DX002 (ip), vehicle: Klucel (hydroxypropylcellulose) (HPC)
[12] = dose: 400.0 mg/kg/injection, schedule: Q04DX002 (ip), vehicle: Klucel (hydroxypropylcellulose) (HPC)
[13] = dose: 25.0 mg/kg/injection, schedule: Q01DX009 (ip), vehicle: saline
[14] = dose: 50.0 mg/kg/injection, schedule: Q01DX009 (ip), vehicle: saline with Tween-80
[15] = dose: 100.0 mg/kg/injection, schedule: Q01DX009 (ip), vehicle: saline with Tween-80
[16] = dose: 100.0 mg/kg/injection, schedule: Q04DX003 (ip), vehicle: saline with Tween-80
[17] = dose: 200.0 mg/kg/injection, schedule: Q04DX003 (ip), vehicle: saline with Tween-80
[18] = dose: 400.0 mg/kg/injection, schedule: Q04DX003 (ip), vehicle: saline with Tween-80
[19] = dose: 25.0 mg/kg/injection, schedule: Q01DX009 (ip), vehicle: Klucel (hydroxypropylcellulose) (HPC)
[20] = dose: 50.0 mg/kg/injection, schedule: Q01DX009 (ip), vehicle: Klucel (hydroxypropylcellulose) (HPC)
[21] = dose: 100.0 mg/kg/injection, schedule: Q01DX001 (ip), vehicle: Klucel (hydroxypropylcellulose) (HPC)
[22] = dose: 200.0 mg/kg/injection, schedule: Q01DX001 (ip), vehicle: Klucel (hydroxypropylcellulose) (HPC)
[23] = dose: 400.0 mg/kg/injection, schedule: Q01DX001 (ip), vehicle: Klucel (hydroxypropylcellulose) (HPC)

Measured: T/C

O=[N+]([O-])c1ccc(NCCNC(c2ccccc2)(c2ccccc2)c2ccccc2)c([N+](=O)[O-])c1
inactive: [1] 96 % of control | dose: 100.0 mg/kg/injection, schedule: Q01DX001 (ip), vehicle: saline 87 % of control | [2] 91 % of control | dose: 200.0 mg/kg/injection, schedule: Q01DX001 (ip), vehicle: saline 90 % of control | [3] 93 % of control

CNC(=O)NNC(=O)CNC(=O)Nc1ccc(Cl)c(Cl)c1
inactive: [4] 106 % of control | [5] 93 % of control | [6] 97 % of control

COC(=O)c1ccc(C(F)(F)F)cc1O
inactive: [7] 97 % of control | [8] 100 % of control | [9] 108 % of control

O=C(Nc1ccc(Cl)cc1)Nc1ccc([N+](=O)[O-])cc1[N+](=O)[O-]
inactive: [10] 111 % of control | [11] 108 % of control | [12] 108 % of control

CNC(C)CC1CCCCC1 (centres undefined)
inactive: dose: 0.78 mg/kg/injection, schedule: Q04DX003 (ip), vehicle: saline 94 % of control | dose: 1.56 mg/kg/injection, schedule: Q01DX009 (ip), vehicle: saline 100 % of control | dose: 1.56 mg/kg/injection, schedule: Q04DX003 (ip), vehicle: saline 98 % of control | dose: 3.12 mg/kg/injection, schedule: Q01DX009 (ip), vehicle: saline 102 % of control | dose: 3.12 mg/kg/injection, schedule: Q04DX003 (ip), vehicle: saline 98 % of control | dose: 6.25 mg/kg/injection, schedule: Q01DX009 (ip), vehicle: saline 97 % of control | dose: 6.25 mg/kg/injection, schedule: Q04DX003 (ip), vehicle: saline 98 % of control | dose: 12.5 mg/kg/injection, schedule: Q01DX009 (ip), vehicle: saline 96 % of control | dose: 12.5 mg/kg/injection, schedule: Q04DX003 (ip), vehicle: saline 100 % of control | [13] 97 % of control | dose: 25.0 mg/kg/injection, schedule: Q04DX003 (ip), vehicle: saline with Tween-80 94 % of control | [1] 106 % of control

C=CC/C(=C/CCC)CCC
inactive: [14] 95 % of control | [15] 100 % of control | dose: 200.0 mg/kg/injection, schedule: Q01DX009 (ip), vehicle: saline with Tween-80 100 % of control

Nc1nc(N)nc(-c2ccccc2NC(=O)c2ccccc2[N+](=O)[O-])n1
inactive: [4] 91 % of control | [7] 101 % of control | [5] 96 % of control | [8] 105 % of control | [6] 90 % of control | [9] 100 % of control

CCOC1=C(C)C(=O)C1C (centres undefined)
inactive: [2] 111 % of control | [3] 101 % of control | dose: 400.0 mg/kg/injection, schedule: Q01DX009 (ip), vehicle: saline 113 % of control

COc1ccc(NC(=O)Oc2ccccc2-c2ccccc2)cc1
inactive: [16] 91 % of control | [17] 91 % of control | [18] 86 % of control

O=C1OC2(c3ccc(O)cc3Oc3cc(O)ccc32)C2C3CCC(O3)C12 (centres undefined)
inactive: [10] 100 % of control | [11] 118 % of control

CC(=O)c1cccc(NC(=O)Nc2ccc(F)c([N+](=O)[O-])c2)c1
inactive: [4] 95 % of control | [5] 96 % of control

CN/N=C\c1cc2ccccc2c2ccccc12
inactive: dose: 50.0 mg/kg/injection, schedule: Q01DX001 (ip), vehicle: alcohol 89 % of control | dose: 100.0 mg/kg/injection, schedule: Q01DX001 (ip), vehicle: alcohol 89 % of control | dose: 200.0 mg/kg/injection, schedule: Q01DX001 (ip), vehicle: alcohol 100 % of control | dose: 400.0 mg/kg/injection, schedule: Q01DX001 (ip), vehicle: alcohol 89 % of control

O=C1OC(c2cccc(Cl)c2)=N/C1=C\c1cc(Br)cc(Br)c1O
inactive: [10] 92 % of control | [11] 100 % of control | [12] 89 % of control

O=C(CC(C(=O)c1ccccc1)c1ccccc1)c1ccccc1 (centres undefined)
inactive: [4] 93 % of control and 89 % of control | [5] 103 % of control | [6] 94 % of control and 103 % of control

CC(=O)NC1CCCC(OC(C)=O)C1 (centres undefined)
inactive: [14] 88 % of control | [15] 91 % of control

CCOP(=O)(OCC)C1C(C)N1C(=O)Nc1ccccc1 (centres undefined)
inactive: [19] 106 % of control | [20] 105 % of control | [4] 110 % of control | [7] 101 % of control | [8] 100 % of control | [9] 106 % of control

CC(C)CC(NC(=O)OCc1ccccc1)C(=O)NC(Cc1ccccc1)C(=O)CCl (stereo not drawn) (Cbz-Leu-Phe-CH2Cl; configuration not given here)
inactive: dose: 25.0 mg/kg/injection, schedule: Q04DX003 (ip), vehicle: Klucel (hydroxypropylcellulose) (HPC) 104 % of control | dose: 50.0 mg/kg/injection, schedule: Q04DX003 (ip), vehicle: Klucel (hydroxypropylcellulose) (HPC) 102 % of control | [21] 90 % of control | [7] 96 % of control and 89 % of control | [22] 88 % of control | [23] 103 % of control

O=C(CC(=O)c1ccccc1)c1ccccc1.O=C(CC(=O)c1ccccc1)c1ccccc1.O=C(CC(=O)c1ccccc1)c1ccccc1.[Cr]
inactive: [10] 93 % of control | [11] 101 % of control | [12] 104 % of control

CC(C)=CCC/C(C)=C/Cn1cc([N+](=O)[O-])ccc1=O
inactive: dose: 100.0 mg/kg/injection, schedule: Q01DX001 (ip), vehicle: saline with Tween-80 106 % of control | [16] 111 % of control | dose: 200.0 mg/kg/injection, schedule: Q01DX001 (ip), vehicle: saline with Tween-80 101 % of control | [17] 111 % of control | dose: 400.0 mg/kg/injection, schedule: Q01DX001 (ip), vehicle: saline with Tween-80 98 % of control | [18] 102 % of control

CCOC(=O)C(=O)O
inactive: [13] 96 % of control | [1] 103 % of control | [2] 96 % of control | dose: 100.0 mg/kg/injection, schedule: Q04DX002 (ip), vehicle: saline 106 % of control | dose: 200.0 mg/kg/injection, schedule: Q04DX002 (ip), vehicle: saline 109 % of control | dose: 400.0 mg/kg/injection, schedule: Q04DX002 (ip), vehicle: saline 97 % of control

O=C(Cl)C(c1ccccc1)C1(C(Cl)(Cl)Cl)CCCCC1 (centres undefined)
inactive: dose: 55.0 mg/kg/injection, schedule: Q01DX Z (ip), vehicle: methylcellulose (MC) 110 % of control | dose: 83.0 mg/kg/injection, schedule: Q01DX Z (ip), vehicle: methylcellulose (MC) 104 % of control | dose: 125.0 mg/kg/injection, schedule: Q01DX Z (ip), vehicle: methylcellulose (MC) 98 % of control

O=C(COc1c(Cl)cc(Cl)cc1Cl)Nc1cccnc1
inactive: [21] 100 % of control | [22] 100 % of control | [23] 107 % of control

[Cl][Ho]([Cl])[Cl]
inactive: dose: 100.0 mg/kg/injection, schedule: Q01DX005 (ip), vehicle: Klucel (hydroxypropylcellulose) (HPC) 94 % of control | [4] 98 % of control | [10] 88 % of control | dose: 200.0 mg/kg/injection, schedule: Q01DX005 (ip), vehicle: Klucel (hydroxypropylcellulose) (HPC) 98 % of control | [5] 95 % of control | [11] 98 % of control | dose: 400.0 mg/kg/injection, schedule: Q01DX005 (ip), vehicle: Klucel (hydroxypropylcellulose) (HPC) 88 % of control | [12] 109 % of control

COC(=O)c1ccccc1NC(=O)c1ccc(C(=O)Nc2ccccc2C(=O)OC)cc1
inactive: [4] 107 % of control | [5] 92 % of control | [6] 92 % of control

O=[N+]([O-])c1cc(Cl)cc2c1nc(NCCO)c1ccccc12
inactive: [19] 95 % of control | [20] 97 % of control | [7] 97 % of control
